Reference: patent US6358885B1, “Substituted phenylheterocyclic herbicides” (Mississippi State University, priority 1992, dated 2002)

Tests used:
[1] = system: chickweed; assay: Test B preemergence/postemergence greenhouse plant response rating 0 to 10; type: in vivo, Stellaria media; details: 0 to 10 scale
Summary of the method: (§1)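 Test chemicals were sprayed onto freshly planted seed and, concurrently, onto young plants between the one and four leaf stage. After a twelve- to sixteen-day greenhouse period, each species was visually compared with untreated controls.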

[2] = system: barnyardgrass; assay: as above; type: in vivo, Echinochloa crus-galli; details: 0 to 10 scale
Summary of the method: as §1

[3] = system: ryegrass; assay: Test C preemergence/postemergence greenhouse plant response rating 0 to 100; type: in vivo, Lolium multiflorum; details: POSTEMERGENCE; for Plant response rating Ryegrass: 0 to 100 scale
Summary of the method: (§2)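 Compounds in non-phytotoxic solvent went onto sandy loam before emergence (seeded one day earlier) or onto plants at the one-to-four leaf stage. Duck salad was treated via flood water (~2.5 cm, maintained) over silt loam.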

[4] = system: umbrella sedge; assay: Test C flood test plant response rating 0 to 100; type: in vivo, Cyperus difformis; details: for Plant response rating Umbrella sedge: flood test species listed under POSTEMERGENCE, 0 to 100 scale
Summary of the method: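 Compounds in non-phytotoxic solvent applied preemergence to sandy loam one day after planting, postemergence at the 1–4 leaf stage, or to ~2.5 cm floodwater over silt loam.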

[5] = system: sugar beet; assay: Test C preemergence/postemergence greenhouse plant response rating 0 to 100; type: in vivo, Beta vulgaris; details: POSTEMERGENCE; for Plant response rating, Sugar beet: 0 to 100 scale
Summary of the method: as §2

[6] = system: wild buckwheat; assay: Test B preemergence/postemergence greenhouse plant response rating 0 to 10; type: in vivo, Polygonum convolvulus; details: 0 to 10 scale
Summary of the method: as §1

[7] = system: crabgrass; assay: Test C preemergence/postemergence greenhouse plant response rating 0 to 100; type: in vivo, Digitaria sanguinalis; details: POSTEMERGENCE; for Plant response rating, Crabgrass: 0 to 100 scale
Summary of the method: as §2

[8] = system: bedstraw; assay: as above; type: in vivo, Galium aparine; details: POSTEMERGENCE; for Plant response rating, Bedstraw: 0 to 100 scale
Summary of the method: as §2

[9] = system: wild oat; assay: as above; type: in vivo, Avena fatua; details: POSTEMERGENCE; for Plant response rating, Wild oat: 0 to 100 scale
Summary of the method: as §2

[10] = system: rape; assay: Test B preemergence/postemergence greenhouse plant response rating 0 to 10; type: in vivo, Brassica napus; details: 0 to 10 scale
Summary of the method: as §1

[11] = system: downy brome; assay: Test C preemergence/postemergence greenhouse plant response rating 0 to 100; type: in vivo, Bromus tectorum; details: POSTEMERGENCE; for Plant response rating Downy Brome: 0 to 100 scale
Summary of the method: as §2

[12] = system: corn; assay: as above; type: in vivo, Zea mays; details: POSTEMERGENCE; for Plant response rating, Corn: 0 to 100 scale
Summary of the method: as §2

[13] = POSTEMERGENCE section, flood test, Rate 4 g/ha
[14] = Rate 16 g/ha, under POSTEMERGENCE head (flood test species)

With Fc1cc(Cl)c(OCCCl)cc1-c1nn2c(c1Cl)CCCC2 [Compound 49] the “Plant response rating, Chickweed” value ([1]; POSTEMERGENCE, Rate 50 g/ha) was 7, the “Plant response rating, Chickweed” value ([1]; POSTEMERGENCE, Rate 200 g/ha) was 9 and the “Plant response rating, Chickweed” value ([1]; PREEMERGENCE, Rate 50 g/ha) was 0. The “Plant response rating, Chickweed” value ([1]; Rate 200 g/ha, PREEMERGENCE) was 8, the “Plant response rating, Barnyardgrass” value ([2]; POSTEMERGENCE, Rate 50 g/ha) was 3 and the “Plant response rating, Barnyardgrass” value ([2]; POSTEMERGENCE, Rate 200 g/ha) was 7. For the same molecule, the “Plant response rating, Barnyardgrass” value ([2]; PREEMERGENCE, Rate 50 g/ha) was 0, the “Plant response rating, Barnyardgrass” value ([2]; Rate 200 g/ha, PREEMERGENCE) was 5 and the “Plant response rating Ryegrass” value ([3]; 62 g/ha) was 50. For the same molecule, the “Plant response rating Ryegrass” value ([3]; 250 g/ha) was 60, the “Plant response rating (0 to 100), Ryegrass” value ([3]; Rate 4 g/ha) was 20 and the “Plant response rating (0 to 100), Ryegrass” value ([3]; Rate 16 g/ha) was 40. For the same molecule, the “Plant response rating (0 to 100), Umbrella sedge” value [4, 13] was 40, the “Plant response rating (0 to 100), Umbrella sedge” value [4, 14] was 70 and the “Plant response rating Umbrella sedge” value ([4]; 62 g/ha) was 90. For the same molecule, the “Plant response rating Umbrella sedge” value ([4]; 250 g/ha) was 95, the “Plant response rating, Sugar beet” value ([5]; 62 g/ha) was 100 and the “Plant response rating, Sugar beet” value ([5]; 250 g/ha) was 100. The “Plant response rating (0 to 100), Sugar beet” value ([5]; Rate 4 g/ha) was 100, the “Plant response rating (0 to 100), Sugar beet” value ([5]; Rate 16 g/ha) was 100 and the “Plant response rating, Wild buckwheat” value ([6]; POSTEMERGENCE, Rate 50 g/ha) was 10. For the same molecule, the “Plant response rating, Wild buckwheat” value ([6]; PREEMERGENCE, Rate 50 g/ha) was 7, the “Plant response rating, Wild buckwheat” value ([6]; Rate 200 g/ha, POSTEMERGENCE) was 10 and the “Plant response rating, Wild buckwheat” value ([6]; Rate 200 g/ha, PREEMERGENCE) was 10. The “Plant response rating, Crabgrass” value ([7]; 62 g/ha) was 20, the “Plant response rating, Crabgrass” value ([7]; 250 g/ha) was 40 and the “Plant response rating (0 to 100), Crabgrass” value ([7]; Rate 4 g/ha) was 10. For the same molecule, the “Plant response rating (0 to 100), Crabgrass” value ([7]; Rate 16 g/ha) was 10, the “Plant response rating, Bedstraw” value ([8]; 62 g/ha) was 70 and the “Plant response rating, Bedstraw” value ([8]; 250 g/ha) was 100. For the same molecule, the “Plant response rating (0 to 100), Bedstraw” value ([8]; Rate 4 g/ha) was 20, the “Plant response rating (0 to 100), Bedstraw” value ([8]; Rate 16 g/ha) was 50 and the “Plant response rating, Wild oat” value ([9]; 62 g/ha) was 50. For the same molecule, the “Plant response rating, Wild oat” value ([9]; 250 g/ha) was 60, the “Plant response rating (0 to 100), Wild oat” value ([9]; Rate 4 g/ha) was 20 and the “Plant response rating (0 to 100), Wild oat” value ([9]; Rate 16 g/ha) was 40. For the same molecule, the “Plant response rating, Rape” value ([10]; POSTEMERGENCE, Rate 50 g/ha) was 7, the “Plant response rating, Rape” value ([10]; PREEMERGENCE, Rate 50 g/ha) was 1 and the “Plant response rating, Rape” value ([10]; Rate 200 g/ha, POSTEMERGENCE) was 6. For the same molecule, the “Plant response rating, Rape” value ([10]; Rate 200 g/ha, PREEMERGENCE) was 6, the “Plant response rating Downy Brome” value ([11]; 62 g/ha) was 60 and the “Plant response rating Downy Brome” value ([11]; 250 g/ha) was 70. The “Plant response rating (0 to 100), Downy Brome” value ([11]; Rate 4 g/ha) was 30, the “Plant response rating (0 to 100), Downy Brome” value ([11]; Rate 16 g/ha) was 40 and the “Plant response rating, Corn” value ([12]; 62 g/ha) was 40. The “Plant response rating, Corn” value ([12]; 250 g/ha) was 50, the “Plant response rating (0 to 100), Corn” value ([12]; Rate 4 g/ha) was 10 and the “Plant response rating (0 to 100), Corn” value ([12]; Rate 16 g/ha) was 30.

With COCN1C(=O)COc2cc(F)c(-c3nn4c(c3Cl)CCCC4)cc21 [Compound 55] the “Plant response rating, Chickweed” value ([1]; POSTEMERGENCE, Rate 10 g/ha) was 9, the “Plant response rating, Chickweed” value ([1]; POSTEMERGENCE, Rate 50 g/ha) was 10 and the “Plant response rating, Chickweed” value ([1]; PREEMERGENCE, Rate 10 g/ha) was 9. The “Plant response rating, Chickweed” value ([1]; PREEMERGENCE, Rate 50 g/ha) was 10, the “Plant response rating, Barnyardgrass” value ([2]; POSTEMERGENCE, Rate 10 g/ha) was 2 and the “Plant response rating, Barnyardgrass” value ([2]; POSTEMERGENCE, Rate 50 g/ha) was 6. The “Plant response rating, Barnyardgrass” value ([2]; PREEMERGENCE, Rate 10 g/ha) was 0, the “Plant response rating, Barnyardgrass” value ([2]; PREEMERGENCE, Rate 50 g/ha) was 6 and the “Plant response rating Ryegrass” value ([3]; 62 g/ha) was 60. For the same molecule, the “Plant response rating (0 to 100), Ryegrass” value ([3]; Rate 1 g/ha) was 10, the “Plant response rating (0 to 100), Ryegrass” value ([3]; Rate 4 g/ha) was 30 and the “Plant response rating (0 to 100), Ryegrass” value ([3]; Rate 16 g/ha) was 40. For the same molecule, the “Plant response rating (0 to 100), Umbrella sedge” value ([4]; POSTEMERGENCE section, flood test, Rate 1 g/ha) was 10, the “Plant response rating (0 to 100), Umbrella sedge” value [4, 13] was 30 and the “Plant response rating (0 to 100), Umbrella sedge” value [4, 14] was 70. For the same molecule, the “Plant response rating Umbrella sedge” value ([4]; 62 g/ha) was 90, the “Plant response rating, Sugar beet” value ([5]; 62 g/ha) was 100 and the “Plant response rating (0 to 100), Sugar beet” value ([5]; Rate 1 g/ha) was 100. The “Plant response rating (0 to 100), Sugar beet” value ([5]; Rate 4 g/ha) was 100, the “Plant response rating (0 to 100), Sugar beet” value ([5]; Rate 16 g/ha) was 100 and the “Plant response rating, Wild buckwheat” value ([6]; POSTEMERGENCE, Rate 10 g/ha) was 10. The “Plant response rating, Wild buckwheat” value ([6]; POSTEMERGENCE, Rate 50 g/ha) was 0, the “Plant response rating, Wild buckwheat” value ([6]; PREEMERGENCE, Rate 50 g/ha) was 10 and the “Plant response rating, Crabgrass” value ([7]; 62 g/ha) was 40. For the same molecule, the “Plant response rating (0 to 100), Crabgrass” value ([7]; Rate 1 g/ha) was 10, the “Plant response rating (0 to 100), Crabgrass” value ([7]; Rate 4 g/ha) was 10 and the “Plant response rating (0 to 100), Crabgrass” value ([7]; Rate 16 g/ha) was 30. The “Plant response rating, Bedstraw” value ([8]; 62 g/ha) was 100, the “Plant response rating (0 to 100), Bedstraw” value ([8]; Rate 1 g/ha) was 30 and the “Plant response rating (0 to 100), Bedstraw” value ([8]; Rate 4 g/ha) was 90. The “Plant response rating (0 to 100), Bedstraw” value ([8]; Rate 16 g/ha) was 100, the “Plant response rating, Wild oat” value ([9]; 62 g/ha) was 60 and the “Plant response rating (0 to 100), Wild oat” value ([9]; Rate 1 g/ha) was 20. For the same molecule, the “Plant response rating (0 to 100), Wild oat” value ([9]; Rate 4 g/ha) was 30, the “Plant response rating (0 to 100), Wild oat” value ([9]; Rate 16 g/ha) was 40 and the “Plant response rating, Rape” value ([10]; POSTEMERGENCE, Rate 10 g/ha) was 10. For the same molecule, the “Plant response rating, Rape” value ([10]; POSTEMERGENCE, Rate 50 g/ha) was 10, the “Plant response rating, Rape” value ([10]; PREEMERGENCE, Rate 50 g/ha) was 6 and the “Plant response rating Downy Brome” value ([11]; 62 g/ha) was 70. For the same molecule, the “Plant response rating (0 to 100), Downy Brome” value ([11]; Rate 1 g/ha) was 30, the “Plant response rating (0 to 100), Downy Brome” value ([11]; Rate 4 g/ha) was 40 and the “Plant response rating (0 to 100), Downy Brome” value ([11]; Rate 16 g/ha) was 60. For the same molecule, the “Plant response rating, Corn” value ([12]; 62 g/ha) was 50, the “Plant response rating (0 to 100), Corn” value ([12]; Rate 1 g/ha) was 30 and the “Plant response rating (0 to 100), Corn” value ([12]; Rate 4 g/ha) was 40. The “Plant response rating (0 to 100), Corn” value ([12]; Rate 16 g/ha) was 50.
